14 compounds from patent US5565429A, “Peptides derived from trifluoromethylketones” (Adir et Compagnie, priority 1992, dated 1996) can be followed below.

pIC50: −log10 of the molar value.

Assay [1] addresses T1, human sputum leucocyte elastase (Homo sapiens, UniProt P08246).
T1 sequence (P08246 30-247 limits assumed): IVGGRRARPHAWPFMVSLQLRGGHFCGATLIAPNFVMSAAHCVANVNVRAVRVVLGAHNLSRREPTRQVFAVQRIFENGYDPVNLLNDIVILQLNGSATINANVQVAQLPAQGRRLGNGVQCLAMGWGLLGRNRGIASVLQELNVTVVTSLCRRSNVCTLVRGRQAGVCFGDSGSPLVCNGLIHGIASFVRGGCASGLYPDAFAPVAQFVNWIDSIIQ
The assay can be described thus: In vivo inhibitory activity: model of acute hemorrhagic edema in hamsters. Set-up: It is a glycoprotein of 25 to 30 kDa formed from 218 amino acids; from tissue; host or cells: human sputum (purified preparation). Conditions: hamster, 10 μg intratracheally 3 hours before elastase (50 units); hemoglobin in broncho-alveolar washing 3 hours after elastase. The procedure:
In vivo inhibitory activity: model of acute hemorrhagic edema in hamsters
Tracheal instillation in hamsters of a purified preparation of human sputum leucocyte elastase leads to acute hemorrhaging which can be quantified by measuring the concentration of hemoglobin in the broncho-alveolar washing 3 hours after the elastase instillation.
The study is carried out on male hamsters weighing […] (Syrian Golden, n=10 per batch). The animals are anesthetized with pentobarbital at a dose of 40 mg/kg intraperitoneally.
The hamsters are anesthetized and the trachea is exposed surgically. The products to be tested are administered with the aid of a needle directly into the trachea in a volume of 0.1 ml at a dose of 10 μg. Human sputum leucocyte elastase is administered, 3 hours after administration of the product, intratracheally at a dose of 50 units per animal at a volume of 0.2 ml.
The animals are sacrificed with the aid of a lethal dose of pentobarbital 3 hours after instillation of elastase and a broncho-alveolar washing with physiological serum is carried out. The degree of hemorrhaging is quantified by a colorimetric method which makes it possible to quantitatively determine the hemoglobin concentration (Boehringer hemoglobin test combination).
The results are expressed in percentage of inhibition of hemorrhaging.

The target in assay [2] is T1, human sputum leucocyte elastase. As to the kind of experiment: Inhibitory activity for human leucocyte elastase in vitro. The conditions noted are these: methoxysuccinyl-Ala-Ala-Pro-Val paranitroanilide substrate, 15 min incubation, 37° C., pH 7.8. Set-up: It is a glycoprotein of 25 to 30 kDa formed from 218 amino acids; purchased Elastin Products Co; host or cells: human sputum (natural enzyme). The class given is biochemical. The procedure: This activity is measured by following the kinetics of hydrolysis of the substrate which leads to the release of paranitroaniline which absorbs at a wavelength of 410 nm.
Enzyme: Human sputum leucocyte elastase (Elastin Products Co.) solubilized at 1000 uI/ml of distilled water, and frozen in aliquots of 50 μl at -20° C.
Substrate: methoxysuccinyl-L-alanyl-L-alanyl-propyl-valine paranitroanilide (Sigma chimie).
Buffer: Tris 0.1M; NaCl 0.5M; pH=7.8.
10 μl of the product to be tested or of the solvent (concentrated×100)
10 μl of human sputum leucocyte elastase diluted to 1/10th
Stirring and incubation for 15 min at 37° C.
The reaction is started by addition of 10 μl of substrate.
The cell is introduced into the spectro- photometer, and the optical density is recorded as a function of time at 410 nm at 37° C.
The initial rate is measured for each product concentration (or solvent control) studied.
Percentages of inhibition with respect to the solvent control are calculated:
Percentage of inhibition=100×(control rate-rate of the product
The inhibitory concentrations 50 (IC50) are calculated from the percentages of inhibition by simple linear regression.

Regarding `CC(C)C(NC(=O)[C@@H]1[C@@H]2CC[C@@H](C2)N1C(=O)[C@@H](NC(=O)c1ccc(S(=O)(=O)NC(=O)c2ccccc2C(=O)N2CCSC2)cc1)C(C)C)C(=O)C(F)(F)F` (stereo partly drawn) [Example 23, 4-[2-[(1,3-Thiazolidin-3-yl)carbonyl]benzoylaminosulfonyl]benzoyl-(S)-Val-(lS,3S,4R)-Abh-(R,S)-Val-CF3], the “Inhibition (%) of hemorrhaging” value in assay [1] is reported as 61%. In addition, in assay [2], the negative logarithm of the IC50 (pIC50) (as a rule, the IC50 on a negative log10 scale, so that one unit is a factor of ten) was 7.52.

With `CC(=O)N[C@@H](CSC(C)(C)C)C(=O)NS(=O)(=O)c1ccc(C(=O)N[C@H](C(=O)N2C3CCC(CC3)[C@H]2C(=O)NC(C(=O)C(F)(F)F)C(C)C)C(C)C)cc1` (stereo partly drawn) [Example 18, 4-[S-tert-Butyl-N-acetyl-(S)-cysteinylaminosulfonyl]benzoyl-(S)-Val-(S)-Abo-(R,S)-Val-CF3], the “Inhibition (%) of hemorrhaging” value in assay [1] is recorded as 38%. This compound also gave a pIC50 in assay [2] of 7.72.

In the case of `CC(C)C(NC(=O)[C@@H]1C[C@@H]2CCCC[C@@H]2N1C(=O)[C@@H](NC(=O)c1ccc(S(=O)(=O)NC(=O)C(C2CC2)C2CC2)cc1)C(C)C)C(=O)C(F)(F)F` (stereo partly drawn) [Example 27, 4-[(Dicyclopropylmethyl)carbonylaminosulfonyl]benzoyl-(S)-Val-(2S,3aS,7aS)-Phi-(R,S)-Val-CF3], the “Inhibition (%) of hemorrhaging” value in assay [1] is on record as 38%. Also, in assay [2], the pIC50 was 7.54.

Consider `CC(C)C(NC(=O)[C@@H]1[C@@H]2CC[C@@H](C2)N1C(=O)[C@@H](NC(=O)c1ccc(C(=O)NS(=O)(=O)c2ccc(Cl)cc2)cc1)C(C)C)C(=O)C(F)(F)F` (stereo partly drawn) [Example 22, 4-(4-Chlorophenylsulfonylaminocarbonyl)benzoyl-(S)-Val-(1S,3S,4R)-Abh-(R,S)-Val-CF3], for which the “Inhibition (%) of hemorrhaging” value in assay [1] stood at 65%. In assay [2], this compound showed a negative logarithm of the IC50 (pIC50) of 7.72.

Regarding `CC(C)C(NC(=O)[C@@H]1C2CCC(CC2)N1C(=O)[C@@H](NC(=O)c1ccc(S(=O)(=O)NC(=O)C(C2CC2)C2CC2)cc1)C(C)C)C(=O)C(F)(F)F` (stereo partly drawn) [Example 24, 4-[(Dicyclopropylmethyl)carbonylaminosulfonyl]benzoyl-(S)-Val-(S)-Abo-(R,S)-Val-CF3], the “Inhibition (%) of hemorrhaging” value in assay [1] was found to be 46%. This compound also gave a pIC50 in assay [2] of 7.60.

In the case of `CC(C)C(NC(=O)[C@@H]1C[C@@H]2CCCC[C@@H]2N1C(=O)[C@@H](NC(=O)c1ccc(S(=O)(=O)NC(=O)Cc2cc(C(C)(C)C)c(O)c(C(C)(C)C)c2)cc1)C(C)C)C(=O)C(F)(F)F` (stereo partly drawn) [Example 29, 4-[(3,5-Di-tert-butyl-4-hydroxybenzyl)carbonylaminosulfonyl]benzoyl-(S)-Val-(2S,3aS,7aS)-Phi-(R,S)-Val-CF3], the “Inhibition (%) of hemorrhaging” value in assay [1] was 63%. Also, in assay [2], the pIC50 is 7.42.

In the case of “4-{[3-(3-Azabicyclo[3.3.0]octane)ureido]sulpfonyl}benzoyl-(S)-Val-(S)-Abo-(R,S)-Val-CF3 [Example 2]”, the “Inhibition (%) of hemorrhaging” value in assay [1] is on record as 57%. This compound also showed a pIC50 in assay [2] of 7.60.

For the compound `CC(C)C(NC(=O)c1ccc(S(=O)(=O)NC(=O)Nc2ccc(Cl)cc2)cc1)C(=O)N1C2CCC(CC2)C1C(=O)NC(C(=O)C(F)(F)F)C(C)C` [Example 25, 4-(4-Chlorophenylureidosulfonyl)benzoyl-(S)-Val-(S)-Abo-(R,S)-Val-CF3], the “Inhibition (%) of hemorrhaging” value in assay [1] was found to be 63%. The compound also gave a negative-log IC50 (pIC50) in assay [2] of 7.47.

Consider `CC(C)C(NC(=O)c1ccc(S(=O)(=O)NC(=O)C23CC4CC(CC(C4)C2)C3)cc1)C(=O)N1C2CCC(CC2)C1C(=O)NC(C(=O)C(F)(F)F)C(C)C` [Example 28, 4-[(Adamant-1-yl)carbonylaminosulfonyl]benzoyl-(S)-Val-(S)-Abo-(R,S)-Val-CF3], for which the “Inhibition (%) of hemorrhaging” value in assay [1] is listed as 57%. Also, the negative logarithm of the IC50 (pIC50) in assay [2] was 7.33.

As for `CC(C)C(NC(=O)[C@@H]1C[C@@H]2CCCC[C@@H]2N1C(=O)[C@@H](NC(=O)c1ccc(S(=O)(=O)NC(=O)Nc2ccc(Cl)cc2)cc1)C(C)C)C(=O)C(F)(F)F` (stereo partly drawn) [Example 26, 4-(4-Chlorophenylureidosulfonyl)benzoyl-(S)-Val-(2S,3aS,7aS)-Phi-(R,S)-Val-CF3], the “Inhibition (%) of hemorrhaging” value in assay [1] is reported as 64%. In assay [2], this compound showed a pIC50 of 7.51.

On to `CC(C)C(NC(=O)[C@@H]1C[C@@H]2CCCC[C@@H]2N1C(=O)[C@@H](NC(=O)c1ccc(S(=O)(=O)NC(=O)c2ccc(CCN3CCC4(CC3)CNC(=O)O4)cc2)cc1)C(C)C)C(=O)C(F)(F)F` (stereo partly drawn) [Example 32, 4-{4-[2-(1-Oxa-2-oxo-3,8-diazaspiro[4.5]dec-8-yl)ethyl]benzoylaminosulfonyl}benzoyl-(S)-Val-(2S,3aS,7aS)-Phi-(R,S)-Val-CF3], for which the “Inhibition (%) of hemorrhaging” value in assay [1] is 42%. Also, in assay [2], the negative-log IC50 (pIC50) is 7.38.

For the compound `CC(C)C(NC(=O)[C@@H]1C[C@@H]2CCCC[C@@H]2N1C(=O)[C@H](CCCCNC(=O)Cc1cc(C(C)(C)C)c(O)c(C(C)(C)C)c1)NC(=O)c1ccc(C(=O)NS(=O)(=O)c2ccc(Cl)cc2)cc1)C(=O)C(F)(F)F` (stereo partly drawn) [Example 41, 4-(4-Chlorophenylsulfonylaminocarbonyl)benzoyl-[N-(3,5-di-tert-butyl-4-hydroxyphenyl)acetyl]-(S)-Lys-(2S,3aS,7aS)-Phi-(R,S)-Val-CF3], the “Inhibition (%) of hemorrhaging” value in assay [1] is listed as 41%. Moreover, the pIC50 in assay [2] was 7.15.

Regarding `CC(C)C(NC(=O)[C@@H]1C2CCC(CC2)N1C(=O)[C@@H](NC(=O)c1ccc(C(=O)NS(=O)(=O)c2ccc(Cl)cc2)cc1)C(C)C)C(=O)C(F)(F)F` (single isomer, unassigned) [Example 4], the “Inhibition (%) of hemorrhaging” value in assay [1] is given as 70%. Further, in assay [2], the pIC50 is 7.82.

As to `CCOCC(O)COc1cc(C(=O)NS(=O)(=O)c2ccc(C(=O)N[C@H](C(=O)N3[C@H](C(=O)NC(C(=O)C(F)(F)F)C(C)C)C[C@@H]4CCCC[C@@H]43)C(C)C)cc2)ccc1OC` (stereo partly drawn) [Example 35, 4-{[4-Methoxy-3-(3-ethoxy-2-hydroxypropoxy)-benzoyl]aminosulfonyl}benzoyl-(S)-Val-(2S,3aS,7aS)-Phi-(R,S)-Val-CF3], in assay [1], the “Inhibition (%) of hemorrhaging” value was 47%. In assay [2], this compound showed a pIC50 of 7.43.
